For 16 compounds, IC50 results are on record in US11786534B2 (TAIHO PHARMACEUTICAL CO., LTD., priority 2019, dated 2023).

pIC50: −log10 of the molar value.

Type in all cases: biochemical
Assay [1] addresses T1, human EGFR (d746-750/T790M/C797S) (Homo sapiens, UniProt P00533, C797S/DEL746-750/T790M).
T1 construct: made in house; host or cells: Sf9 insect cells, baculovirus
Nature of the assay: Inhibitory activity against EGFR (d746-750/T790M/C797S) kinase. An outline of the steps:
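GST-fused cytoplasmic domain of human EGFR d746-750/T790M/C797S (Sf9-expressed) was incubated with 250 nM biotinylated peptide, 6 μM ATP, 10 mM MgCl2 and 10 mM MnCl2 (2.5% DMSO) for 120 min at 25 °C. After an EDTA stop, phosphotyrosine was detected by Eu-PT66/SureLight APC-SA TR-FRET (665/620 nm, excitation 337 nm). Background wells received EDTA before enzyme.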

Assay [2] has as its target T2, human EGFR (L858R/T790M/C797S) (Homo sapiens, UniProt P00533, C797S/L858R/T790M).
T2 construct: made in house; host or cells: Sf9 insect cells, baculovirus
Put plainly: Inhibitory activity against EGFR (L858R/T790M/C797S) kinase. How it is done: 2) Measurement of inhibitory activity against EGFR (L858R/T790M/C797S) kinase
The compounds of the presein invention were measured for their inhibitory activity against EGFR (L858R/T790M/C797S) kinase activity.
The materials, measurement procedures and data analysis method used in this test are substantially the same as those shown in the section “Measurement of inhibitory activity against EGFR (d746-750/T790M/C797S) kinase.” However, among the materials, the kinase protein (SEQ ID NO: 2) used was prepared as follows: the cytoplasmic domain of human EGFR (L858R/T790M/C797S) fused at the amino terminal end with a GST tag was expressed in insect cells (Sf9) by the baculovirus expression system and then purified on a glutathione sepharose column. In the measurement procedures, the final concentration of ATP was set to 0.5 μM. Finally, data analysis was conducted to determine the IC50 value (nM) of each compound against EGFR (L858R/T790M/C797S).
In accordance with the same procedures as shown in 2) in Test Example 1, the compounds of the present invention were measured for their inhibitory activity against EGFR (L858R/T790M/C797S) kinase activity.

Assay [3] has as its target T3, human EGFR (d746-750/C797S) (Homo sapiens, UniProt P00533, C797S/DEL746-750).
T3 construct: purchased SignalChem
Nature of the assay: Inhibitory activity against EGFR (d746-750/C797S) kinase. An outline of the steps: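 Recombinant human EGFR d746-750/C797S in 13.5 mM Tris pH 7.5 with 2 mM DTT and 0.009% Tween-20. Reaction ran 60 min with 14 μM ATP, 20 mM MgCl2 and 12.5 mM MnCl2, stopped by 40 mM EDTA. IC50 in nM.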

The target in another assay is T4, human EGFR (L858R/C797S) (Homo sapiens, UniProt P00533, C797S/L858R).
T4 construct: purchased SignalChem
T4 sequence (P00533 25-1210 C797S/L858R): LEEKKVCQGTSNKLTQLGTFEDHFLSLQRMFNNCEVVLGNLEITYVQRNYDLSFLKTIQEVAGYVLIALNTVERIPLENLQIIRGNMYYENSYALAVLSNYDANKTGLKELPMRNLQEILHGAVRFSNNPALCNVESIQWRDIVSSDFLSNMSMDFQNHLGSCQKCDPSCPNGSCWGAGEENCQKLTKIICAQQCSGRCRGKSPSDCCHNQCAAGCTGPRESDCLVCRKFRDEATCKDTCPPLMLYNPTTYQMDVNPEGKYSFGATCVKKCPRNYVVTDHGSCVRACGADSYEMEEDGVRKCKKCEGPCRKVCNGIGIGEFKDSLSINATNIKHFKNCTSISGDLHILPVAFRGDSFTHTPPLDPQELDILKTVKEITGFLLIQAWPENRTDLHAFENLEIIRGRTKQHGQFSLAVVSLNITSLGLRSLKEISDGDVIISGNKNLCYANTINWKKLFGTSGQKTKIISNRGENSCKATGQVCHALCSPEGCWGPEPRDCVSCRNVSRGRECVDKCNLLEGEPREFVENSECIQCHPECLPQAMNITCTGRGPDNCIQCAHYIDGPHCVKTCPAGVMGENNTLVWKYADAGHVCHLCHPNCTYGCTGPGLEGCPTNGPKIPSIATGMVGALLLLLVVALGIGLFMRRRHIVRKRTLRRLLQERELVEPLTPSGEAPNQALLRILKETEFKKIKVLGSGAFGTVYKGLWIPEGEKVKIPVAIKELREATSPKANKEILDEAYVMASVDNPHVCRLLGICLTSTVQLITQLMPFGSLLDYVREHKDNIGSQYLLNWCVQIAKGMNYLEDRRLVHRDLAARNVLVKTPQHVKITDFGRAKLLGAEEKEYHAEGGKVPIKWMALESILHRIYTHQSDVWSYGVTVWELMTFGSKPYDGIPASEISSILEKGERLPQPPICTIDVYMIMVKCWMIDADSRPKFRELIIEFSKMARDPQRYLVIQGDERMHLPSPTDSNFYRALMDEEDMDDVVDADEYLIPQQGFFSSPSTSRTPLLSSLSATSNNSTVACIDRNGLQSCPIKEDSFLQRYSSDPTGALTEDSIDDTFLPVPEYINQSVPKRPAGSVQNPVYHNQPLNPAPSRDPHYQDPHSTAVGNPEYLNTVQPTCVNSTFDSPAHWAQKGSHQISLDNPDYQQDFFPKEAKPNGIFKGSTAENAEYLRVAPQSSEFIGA
Put plainly: Inhibitory activity against EGFR (L858R/C797S) kinase. The essentials:
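Purified recombinant human EGFR (C797S/L858R) kinase, final ATP 4 μM, 90-minute kinase reaction, otherwise per the EGFR (d746-750/C797S) protocol. IC50 (nM) determined from inhibition data.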

A further assay addresses T5, human EGFR (WT) (Homo sapiens, UniProt P00533).
T5 construct: purchased Carna Biosciences Inc., Japan
Nature of the assay: Inhibitory activity against EGFR (WT) kinase. An outline of the steps: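 Purified recombinant human wild-type EGFR kinase, with ATP at 1.5 μM final. Compound inhibition of kinase activity read out and fitted to give IC50 (nM).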

[4] abbreviates: Test Example 1, Table 2, ATP 6 μM, 25° C., 120 minutes.
[5] abbreviates: Test Example 1, Table 3, ATP 0.5 μM.
Where [6] appears, read: Test Example 1, Table 4, ATP 14 μM, 60 minutes.
The mark [7] stands for this setting: Test Example 1, Table 5, ATP 4 μM, 90 minutes.
Setting [8] is: Test Example 1, Table 6, ATP 1.5 μM.
The mark [9] stands for this setting: Test Example 3, Table 8; same procedures as 1) in Test Example 1.
The mark [10] stands for this setting: Test Example 3, Table 9; same procedures as 2) in Test Example 1.
[11] abbreviates: Test Example 3, Table 10; same procedures as 3) in Test Example 1.
The mark [12] stands for this setting: Test Example 3, Table 11; same procedures as 4) in Test Example 1.
Where [13] appears, read: Test Example 3, Table 12; same procedures as 5) in Test Example 1.

T1 sequence (P00533 with tags, fused parts or gaps DEL746-750/T790M/C797S): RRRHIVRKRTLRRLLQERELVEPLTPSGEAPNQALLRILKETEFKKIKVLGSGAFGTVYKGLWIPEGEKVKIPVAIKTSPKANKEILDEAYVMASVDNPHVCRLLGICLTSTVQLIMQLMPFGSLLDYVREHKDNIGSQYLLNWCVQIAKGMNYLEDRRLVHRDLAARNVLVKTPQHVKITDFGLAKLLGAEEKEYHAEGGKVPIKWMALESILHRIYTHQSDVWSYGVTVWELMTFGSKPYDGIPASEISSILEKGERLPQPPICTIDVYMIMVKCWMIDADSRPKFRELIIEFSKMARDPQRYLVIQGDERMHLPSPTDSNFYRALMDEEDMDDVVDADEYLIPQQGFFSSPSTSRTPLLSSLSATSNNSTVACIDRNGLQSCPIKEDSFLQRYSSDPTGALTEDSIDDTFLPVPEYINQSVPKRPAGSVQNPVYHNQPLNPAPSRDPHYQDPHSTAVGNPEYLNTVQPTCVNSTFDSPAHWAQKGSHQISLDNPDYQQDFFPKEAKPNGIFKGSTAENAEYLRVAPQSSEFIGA
T2 sequence (P00533 with tags, fused parts or gaps T790M/C797S/L858R): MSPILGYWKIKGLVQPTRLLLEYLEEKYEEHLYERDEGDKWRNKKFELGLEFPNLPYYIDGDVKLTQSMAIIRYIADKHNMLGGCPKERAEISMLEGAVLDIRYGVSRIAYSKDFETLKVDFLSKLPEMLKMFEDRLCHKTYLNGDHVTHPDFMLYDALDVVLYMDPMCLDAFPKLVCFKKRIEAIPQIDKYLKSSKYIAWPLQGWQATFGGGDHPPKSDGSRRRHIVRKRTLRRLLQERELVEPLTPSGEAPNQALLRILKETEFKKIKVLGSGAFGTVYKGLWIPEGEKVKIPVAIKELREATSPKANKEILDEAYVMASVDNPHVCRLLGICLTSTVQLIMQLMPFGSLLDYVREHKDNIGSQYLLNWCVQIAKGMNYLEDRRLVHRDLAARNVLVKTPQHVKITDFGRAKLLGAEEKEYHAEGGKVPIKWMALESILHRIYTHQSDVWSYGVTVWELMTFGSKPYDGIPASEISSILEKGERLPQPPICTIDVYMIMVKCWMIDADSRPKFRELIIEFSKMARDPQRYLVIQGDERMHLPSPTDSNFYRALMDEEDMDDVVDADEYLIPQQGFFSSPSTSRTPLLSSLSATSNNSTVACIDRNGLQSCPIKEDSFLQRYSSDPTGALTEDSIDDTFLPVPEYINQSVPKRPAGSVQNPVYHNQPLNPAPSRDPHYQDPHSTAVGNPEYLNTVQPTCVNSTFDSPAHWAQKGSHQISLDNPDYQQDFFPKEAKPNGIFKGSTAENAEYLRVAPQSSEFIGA
T5 sequence (P00533 25-1210): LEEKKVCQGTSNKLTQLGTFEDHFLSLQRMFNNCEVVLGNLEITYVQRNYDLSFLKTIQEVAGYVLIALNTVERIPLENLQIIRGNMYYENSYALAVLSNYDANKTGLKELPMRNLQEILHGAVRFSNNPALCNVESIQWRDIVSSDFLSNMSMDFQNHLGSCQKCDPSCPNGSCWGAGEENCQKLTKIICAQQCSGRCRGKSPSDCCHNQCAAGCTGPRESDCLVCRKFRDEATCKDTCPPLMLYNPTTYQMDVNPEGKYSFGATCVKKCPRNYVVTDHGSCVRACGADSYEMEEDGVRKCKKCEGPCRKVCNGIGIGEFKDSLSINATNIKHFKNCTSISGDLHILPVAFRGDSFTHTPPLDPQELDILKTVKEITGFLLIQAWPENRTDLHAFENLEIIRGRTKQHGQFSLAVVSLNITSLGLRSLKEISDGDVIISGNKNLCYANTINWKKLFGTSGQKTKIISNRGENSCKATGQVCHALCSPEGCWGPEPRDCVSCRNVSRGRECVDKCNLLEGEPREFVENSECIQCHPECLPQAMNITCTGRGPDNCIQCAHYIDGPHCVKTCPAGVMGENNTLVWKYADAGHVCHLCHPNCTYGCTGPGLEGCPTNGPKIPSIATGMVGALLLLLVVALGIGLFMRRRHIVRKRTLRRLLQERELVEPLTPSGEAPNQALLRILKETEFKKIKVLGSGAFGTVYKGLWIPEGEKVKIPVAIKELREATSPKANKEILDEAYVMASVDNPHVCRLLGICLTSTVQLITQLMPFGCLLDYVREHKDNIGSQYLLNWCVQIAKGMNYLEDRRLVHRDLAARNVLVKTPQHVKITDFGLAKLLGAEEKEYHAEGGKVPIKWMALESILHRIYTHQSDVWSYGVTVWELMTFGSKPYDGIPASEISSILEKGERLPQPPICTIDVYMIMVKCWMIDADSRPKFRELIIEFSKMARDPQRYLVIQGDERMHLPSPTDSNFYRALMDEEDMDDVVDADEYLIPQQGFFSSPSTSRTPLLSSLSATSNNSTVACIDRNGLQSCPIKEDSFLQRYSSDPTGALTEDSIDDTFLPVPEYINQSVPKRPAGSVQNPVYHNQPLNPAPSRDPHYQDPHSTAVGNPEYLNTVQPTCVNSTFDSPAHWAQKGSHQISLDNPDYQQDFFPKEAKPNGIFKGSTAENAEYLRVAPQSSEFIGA
T3 sequence (P00533 with tags, fused parts or gaps DEL746-750/C797S): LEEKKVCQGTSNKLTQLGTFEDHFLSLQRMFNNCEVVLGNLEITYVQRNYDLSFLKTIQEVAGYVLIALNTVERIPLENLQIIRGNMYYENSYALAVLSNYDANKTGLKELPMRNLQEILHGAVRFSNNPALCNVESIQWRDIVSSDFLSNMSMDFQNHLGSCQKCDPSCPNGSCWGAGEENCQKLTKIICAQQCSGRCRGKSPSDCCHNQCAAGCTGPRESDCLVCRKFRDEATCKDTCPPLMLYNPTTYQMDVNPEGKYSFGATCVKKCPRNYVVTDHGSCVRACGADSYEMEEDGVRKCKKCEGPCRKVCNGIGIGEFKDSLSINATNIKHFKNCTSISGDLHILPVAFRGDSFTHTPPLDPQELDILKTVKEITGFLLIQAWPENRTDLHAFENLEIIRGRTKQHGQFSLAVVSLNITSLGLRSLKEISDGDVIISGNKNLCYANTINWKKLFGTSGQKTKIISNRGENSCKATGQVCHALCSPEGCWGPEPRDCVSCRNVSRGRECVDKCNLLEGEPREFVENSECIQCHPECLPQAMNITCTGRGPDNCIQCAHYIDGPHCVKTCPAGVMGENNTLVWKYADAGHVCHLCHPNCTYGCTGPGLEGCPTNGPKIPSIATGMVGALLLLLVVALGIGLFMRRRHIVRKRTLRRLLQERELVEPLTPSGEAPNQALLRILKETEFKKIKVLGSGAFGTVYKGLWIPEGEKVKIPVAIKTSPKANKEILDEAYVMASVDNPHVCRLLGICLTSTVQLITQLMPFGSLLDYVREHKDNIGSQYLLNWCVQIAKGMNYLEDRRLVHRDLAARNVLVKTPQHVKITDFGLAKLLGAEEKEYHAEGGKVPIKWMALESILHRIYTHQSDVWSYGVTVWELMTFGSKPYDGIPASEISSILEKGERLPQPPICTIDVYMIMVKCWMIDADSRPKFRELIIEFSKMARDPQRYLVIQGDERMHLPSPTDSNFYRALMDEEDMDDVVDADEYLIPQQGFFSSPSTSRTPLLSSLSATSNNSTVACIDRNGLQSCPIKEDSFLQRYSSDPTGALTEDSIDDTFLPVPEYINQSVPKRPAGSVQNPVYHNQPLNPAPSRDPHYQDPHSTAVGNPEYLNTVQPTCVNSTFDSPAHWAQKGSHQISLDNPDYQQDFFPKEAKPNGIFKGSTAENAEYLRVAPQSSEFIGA

`C#Cc1c(-c2cnc3ccccc3c2)c2c(N)ncnc2n1C12CCC(NC(=O)OCC)(CC1)C2` [Example 12, Ethyl (4-(4-amino-6-ethynyl-5-(quinolin-3-yl)-7H-pyrrolo[2,3-d]pyrimidin-7-yl) -bicyclo[2.2.1]heptan-1-yl)carbamate]: the pIC50 in assay [1] (setting [4]) is more than 9.52; in assay [2] (setting [5]), 9.41; in assay [3] (setting [6]), 8.62; against human EGFR (L858R/C797S) (setting [7]) it was 8.42; on human EGFR (WT) (setting [8]) it was 8.68.

With `C#Cc1c(-c2cnc3ccccc3c2)c2c(N)ncnc2n1C12CCC(NC(=O)c3cnc4cnccn34)(CC1)C2` [Example 65], the pIC50 is more than 9.52 in assay [1] (setting [9]); more than 9.52 in assay [2] (setting [10]); 9.40 in assay [3] (setting [11]); more than 9.52 against human EGFR (L858R/C797S) (setting [12]); more than 9.52 on human EGFR (WT) (setting [13]).

Turning to `C#Cc1c(-c2cnc3ccccc3c2)c2c(N)ncnc2n1C12CCC(NC(=O)c3cc(CF)nn3C)(CC1)C2` [Example 29, N-(4-(4-Amino-6-ethynyl-5-(quinolin-3-yl)-7H-pyrrolo[2,3-d]pyrimidin-7-yl)bicyclo-[2.2.1]heptan-1-yl)-3-(fluoromethyl)-1-methyl-1H-pyrazole-5-carboxamide], the pIC50 in assay [1] (setting [4]) is more than 9.52; in assay [2] (setting [5]), 9.51; in assay [3] (setting [6]), 9.49; against human EGFR (L858R/C797S) (setting [7]) it was 9.41; at human EGFR (WT) (setting [8]), 9.21.

With `C#Cc1c(-c2cnc3ccccc3c2)c2c(N)ncnc2n1C12CCC(CO)(CC1)C2` [Example 10], the pIC50 in assay [1] (setting [4]) is more than 9.52; in assay [2] (setting [5]) it was 9.25; in assay [3] (setting [6]), 9.21; against human EGFR (L858R/C797S) (setting [7]), 9.02; against human EGFR (WT) (setting [8]) it was 8.96.

As to `C#Cc1c(-c2cnc3ccccc3c2)c2c(N)ncnc2n1C12CCC(NC(=O)c3cnnn3C)(CC1)C2` [Example 22, N-(4-(4-Amino-6-ethynyl-5-(quinolin-3-yl)-7H-pyrrolo[2,3-d]pyrimidin-7-yl)bicyclo-[2.2.1]heptan-1-yl)-1-methyl-1H-1,2,3-triazole-5-carboxamide], the pIC50 in assay [1] (setting [4]) is more than 9.52; in assay [2] (setting [5]), 9.38; in assay [3] (setting [6]), more than 9.52; against human EGFR (L858R/C797S) (setting [7]), 9.46; against human EGFR (WT) (setting [8]) it was 9.26.

Regarding `C#Cc1c(-c2cnc3ccccc3c2)c2c(N)ncnc2n1C12CCC(NCC#N)(CC1)C2` [Example 4, 2-((4-(4-Amino-6-ethynyl-5-(quinolin-3-yl)-7H-pyrrolo[2,3-d]pyrimidin-7-yl)bicyclo-[2.2.1]heptan-1-yl)amino)acetonitrile], the pIC50 was 9.44 in assay [1] (setting [4]); 9.42 in assay [2] (setting [5]); 9.00 in assay [3] (setting [6]); 8.82 against human EGFR (L858R/C797S) (setting [7]); 8.54 against human EGFR (WT) (setting [8]).

Turning to `C#Cc1c(-c2cnc3ccccc3c2)c2c(N)ncnc2n1C12CCC(NC(=O)COC)(CC1)C2` [Example 28, N-(4-(4-Amino-6-ethynyl-5-(quinolin-3-yl)-7H-pyrrolo[2,3-d]pyrimidin-7-yl)bicyclo-[2.2.1]heptan-1-yl)-2-methoxyacetamide], the pIC50 is more than 9.52 in assay [1] (setting [4]); 8.96 in assay [2] (setting [5]); 9.05 in assay [3] (setting [6]); 8.77 at human EGFR (L858R/C797S) (setting [7]); 8.49 against human EGFR (WT) (setting [8]).

On to `C#Cc1c(-c2cnc3ccccc3c2)c2c(N)ncnc2n1C12CCC(NC(=O)c3cc(S(C)(=O)=O)ccn3)(CC1)C2` [Example 30, N-(4-(4-Amino-6-ethynyl-5-(quinolin-3-yl)-7H-pyrrolo[2,3-d]pyrimidin-7-yl)bicyclo-[2.2.1]heptan-1-yl)-4-(methylsulfonyl)picolinamide], for which the pIC50 in assay [1] (setting [4]) was more than 9.52; in assay [2] (setting [5]) it was 9.48; in assay [3] (setting [6]), 9.19; against human EGFR (L858R/C797S) (setting [7]), 8.92; against human EGFR (WT) (setting [8]), 8.72.

In the case of `C#Cc1c(-c2cnc3ccccc3c2)c2c(N)ncnc2n1C12CCC(N(C)C(=O)c3ncco3)(CC1)C2` [Example 58, N-[4-(4-Amino-6-ethynyl-5-quinolin-3-ylpyrrolo[2,3-d]pyrimidin-7-yl)-1-bicyclo-[2.2.1]heptan-1-yl]-N-methyloxazole-2-carboxamide], the pIC50 was more than 9.52 in assay [1] (setting [4]); 8.82 in assay [2] (setting [5]); 8.66 in assay [3] (setting [6]); 8.47 against human EGFR (L858R/C797S) (setting [7]); 8.41 on human EGFR (WT) (setting [8]).

Consider `C#Cc1c(-c2cnc3ccccc3c2)c2c(N)ncnc2n1C12CCC(NC(=O)c3ccnn3CCOC)(CC1)C2` [Example 17, N-(4-(4-Amino-6-ethynyl-5-(quinolin-3-yl)-7H-pyrrolo[2,3-d]pyrimidin-7-yl)bicyclo-[2.2.1]heptan-1-yl)-1-(2-methoxyethyl)-1H-pyrazole-5-carboxamide], for which the pIC50 was more than 9.52 in assay [1] (setting [4]); 9.10 in assay [2] (setting [5]); 9.21 in assay [3] (setting [6]); 9.18 against human EGFR (L858R/C797S) (setting [7]); 8.59 against human EGFR (WT) (setting [8]).

Turning to `C#Cc1c(-c2cnc3ccccc3c2)c2c(N)ncnc2n1C12CCC(NC(=O)c3cnc(CO)cn3)(CC1)C2` [Example 66, N-(4-(4-Amino-6-ethynyl-5-(quinolin-3-yl)-7H-pyrrolo[2,3-d]pyrimidin-7-yl)bicyclo-[2.2.1]heptan-1-yl)-5-(hydroxymethyl)pyrazine-2-carboxamide], the negative logarithm of the IC50 (pIC50) (in assay [1] (setting [9]); in assay [2] (setting [10]); in assay [3] (setting [11]); against human EGFR (L858R/C797S) (setting [12]); on human EGFR (WT) (setting [13])) was more than 9.52 each time.

With `C#Cc1c(-c2cnc3ccccc3c2)c2c(N)ncnc2n1C12CCC(NC(=O)c3ccc(P(C)(C)=O)cn3)(CC1)C2` [Example 70, N-(4-(4-Amino-6-ethynyl-5-(quinolin-3-yl)-7H-pyrrolo[2,3-d]pyrimidin-7-yl)bicyclo-[2.2.1]heptan-1-yl)-5-(dimethylphosphoryl)picolinamide], the pIC50 was more than 9.52 in assay [1] (setting [9]); more than 9.52 in assay [2] (setting [10]); 9.15 in assay [3] (setting [11]); 8.80 on human EGFR (L858R/C797S) (setting [12]); 9.03 against human EGFR (WT) (setting [13]).

As for `C#Cc1c(-c2cnc3ccccc3c2)c2c(N)ncnc2n1C12CCC(NC(=O)c3cnc(Cl)cn3)(CC1)C2` [Example 15], the pIC50 in assay [1] (setting [4]) was more than 9.52; in assay [2] (setting [5]), 9.28; in assay [3] (setting [6]) it was 9.10; against human EGFR (L858R/C797S) (setting [7]), 9.00; at human EGFR (WT) (setting [8]), 8.82.

`C#Cc1c(-c2cnc3ccccc3c2)c2c(N)ncnc2n1C12CCC(NC(=O)c3nccnn3)(CC1)C2` [Example 19, N-(4-(4-Amino-6-ethynyl-5-(quinolin-3-yl)-7H-pyrrolo[2,3-d]pyrimidin-7-yl)bicyclo-[2.2.1]heptan-1-yl)-1,2,4-triazine-3-carboxamide]: the pIC50 in assay [1] (setting [4]) is more than 9.52; in assay [2] (setting [5]), more than 9.52; in assay [3] (setting [6]) it was more than 9.52; at human EGFR (L858R/C797S) (setting [7]) it was 9.52; against human EGFR (WT) (setting [8]), 9.41.

As for `C#Cc1c(-c2cnc3ccccc3c2)c2c(N)ncnc2n1C12CCC(NC(=O)c3nccn4ccnc34)(CC1)C2` [Example 42], the pIC50 in assay [1] (setting [4]) is more than 9.52; in assay [2] (setting [5]), more than 9.52; in assay [3] (setting [6]), 9.32; against human EGFR (L858R/C797S) (setting [7]) it was 9.37; at human EGFR (WT) (setting [8]), 9.51.

As to `C#Cc1c(-c2cnc3ccccc3c2)c2c(N)ncnc2n1C12CCC(NC(=O)NCC)(CC1)C2` [Example 50], the pIC50 was more than 9.52 in assay [1] (setting [4]); 9.17 in assay [2] (setting [5]); 9.01 in assay [3] (setting [6]); 8.70 against human EGFR (L858R/C797S) (setting [7]); 8.92 against human EGFR (WT) (setting [8]).

What is called pIC50 is the negative decadic logarithm of the IC50, by convention in mol/L.
